Measured values as given in patent US9511134B2, “Inducing immune responses to influenza virus using polypeptide and nucleic acid compositions” (priority 2006, dated 2016).

How the values were obtained:
Test in all cases: biochemical
Assay type in all cases: binding
DRB1*0301 = target: T1, DRB1*0301 (Homo sapiens, UniProt P01903+P01911, A100K/A102G/A103R/A169T/F55Y/I96L/K41T/L162R/M171V/P40S/Q125H/Q178H/Q39Y/R42S/S66N/T106N/T262R/W38E/Y61H)
T1 construct: made in house; host or cells: EBV-transformed homozygous human B cell lines, transfected fibroblasts or single-allele 721.221 transfectants
T1 sequence (P01903 26-254, other chains not shown): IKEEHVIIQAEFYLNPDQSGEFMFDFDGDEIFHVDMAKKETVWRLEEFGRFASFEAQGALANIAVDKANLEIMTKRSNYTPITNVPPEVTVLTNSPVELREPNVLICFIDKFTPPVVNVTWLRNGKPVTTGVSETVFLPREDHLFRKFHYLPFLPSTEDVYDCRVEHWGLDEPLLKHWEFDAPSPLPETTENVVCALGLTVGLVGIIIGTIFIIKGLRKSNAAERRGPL

DRB1*0401 = target: T2, DRB1*0401 (Homo sapiens, UniProt P01903+P01911, A100K/A169T/F76Y/I96L/K127E/L162R/M171V/N62H/P40V/Q125Y/R42H/S133A/S149N/S66Y/V115G/V209L/W38E); settings: read-out: IC50 nM to purified HLA DRB1*0401
T2 construct: made in house; host or cells: EBV-transformed homozygous human B cell lines, transfected fibroblasts or single-allele 721.221 transfectants

DRB1*1302 = DRB1*1302 (Homo sapiens, UniProt P01903+P01911, A100E/A169T/K41T/L162R/M171V/P40S/Q125H/Q178H/Q39Y/Q99D/R42S/S66N/T262R/V115G/W38E/Y61H); settings: read-out: IC50 nM to purified HLA DRB1*1302
DRB1*1302, sequence (P01903 26-254 limits assumed, other chains not shown): as the sequence (P01903 26-254, other chains not shown) above

DRB1*1501 = target: T3, DRB1*1501 (Homo sapiens, UniProt P01903+P01911); settings: read-out: IC50 nM to purified HLA DRB1*1501
T3 construct: made in house; host or cells: EBV-transformed homozygous human B cell lines, transfected fibroblasts or single-allele 721.221 transfectants

DRB1*0404 = DRB1*0404 (Homo sapiens, UniProt P01903+P01911, A100R/A169T/F76Y/I96L/K127E/L162R/M171V/N62H/P40V/Q125Y/R42H/S133A/S149N/S66Y/V209L/W38E); settings: IC50 nM to purified HLA DRB1*0404
DRB1*0101 = target: T4, DRB1*0101 (Homo sapiens, UniProt P01903+P01911, A100R/D57E/F55L/F60I/F76Y/I96L/L162R/M171V/P40L/Q125E/R42F/V115G/Y59C); settings: IC50 nM to purified HLA DRB1*0101
T4 construct: made in house; host or cells: EBV-transformed homozygous human B cell lines, transfected fibroblasts or single-allele 721.221 transfectants

SMILES | IC50 (DRB1*0301) | IC50 (DRB1*0401) | IC50 (DRB1*1302) | IC50 (DRB1*1501) | IC50 (DRB1*0404) | IC50 (DRB1*0101)
CC(C)C[C@H](NC(=O)[C@H](C)NC(=O)CNC(=O)[C@H](CCC(N)=O)NC(=O)[C@@H](N)[C@@H](C)O)C(=O)N[C@@H](CC(C)C)C(=O)N[C@@H](CC(N)=O)C(=O)N[C@@H](CC(=O)O)C(=O)N[C@@H](CCCCN)C(=O)N[C@@H](Cc1c[nH]cn1)C(=O)N[C@@H](CO)C(=O)N[C@@H](CC(N)=O)C(=O)NCC(=O)N[C@H](C(=O)N[C@H](C(=O)N[C@@H](CCCCN)C(=O)N[C@@H](CC(=O)O)C(=O)O)C(C)C)[C@@H](C)O [Flu.NA.115] | 177 nM | 19000 nM | 468 nM | 822 nM | – | –
CC[C@H](C)[C@H](NC(=O)[C@H](CCCNC(=N)N)NC(=O)[C@H](CCCNC(=N)N)NC(=O)[C@@H](NC(=O)[C@H](CCC(=O)O)NC(=O)[C@H](CCC(=O)O)NC(=O)[C@H](CCCCN)NC(=O)[C@H](CC(=O)O)NC(=O)[C@H](Cc1ccc(O)cc1)NC(=O)[C@H](CC(C)C)NC(=O)[C@@H](NC(=O)[C@H](CC(C)C)NC(=O)[C@H](CCC(=O)O)NC(=O)[C@@H](N)CCCNC(=N)N)[C@@H](C)CC)[C@@H](C)CC)C(=O)N[C@@H](Cc1c[nH]c2ccccc12)C(=O)O [Flu.NP.109] | 59 nM | – | – | – | 1800 nM | –
CSCC[C@H](NC(=O)[C@H](C)NC(=O)[C@H](CCCCN)NC(=O)[C@@H](N)CCC(N)=O)C(=O)N[C@@H](CCSC)C(=O)N[C@@H](CC(=O)O)C(=O)N[C@@H](CCC(N)=O)C(=O)N[C@H](C(=O)N[C@@H](CCCNC(=N)N)C(=O)N[C@@H](CCC(=O)O)C(=O)N[C@@H](CO)C(=O)N[C@@H](CCCNC(=N)N)C(=O)N[C@@H](CC(N)=O)C(=O)N1CCC[C@H]1C(=O)NCC(=O)O)C(C)C [Flu.NP.238] | 450 nM | – | – | – | 1830 nM | –
CC[C@H](C)[C@H](NC(=O)[C@H](C)NC(=O)[C@@H](N)CCC(N)=O)C(=O)N[C@@H](CCSC)C(=O)N[C@@H](CC(=O)O)C(=O)N[C@@H](CCCCN)C(=O)N[C@@H](CC(=O)O)C(=O)N[C@H](C(=O)N[C@H](C(=O)N[C@@H](CC(C)C)C(=O)N[C@@H](CCCCN)C(=O)N[C@@H](C)C(=O)N[C@@H](CC(N)=O)C(=O)N[C@@H](Cc1ccccc1)C(=O)N[C@@H](CO)C(=O)O)[C@@H](C)CC)[C@@H](C)CC [Flu.NS1.124] | – | – | – | – | 310 nM | –
CC[C@H](C)[C@H](NC(=O)[C@H](CO)NC(=O)[C@H](CCC(=O)O)NC(=O)CN)C(=O)N[C@H](C(=O)N[C@H](C(=O)N[C@@H](CCC(=O)O)C(=O)N[C@@H](CC(C)C)C(=O)N[C@@H](CC(=O)O)C(=O)N[C@@H](CC(=O)O)C(=O)N1CCC[C@H]1C(=O)N[C@@H](CC(N)=O)C(=O)N[C@@H](C)C(=O)N[C@@H](CC(C)C)C(=O)N[C@@H](CC(C)C)C(=O)O)C(C)C)[C@@H](C)CC [Flu.PA.61] | – | – | 59 nM | – | 80 nM | –
CC(C)C[C@H](NC(=O)[C@H](CO)NC(=O)[C@H](CCCNC(=N)N)NC(=O)[C@H](CC(C)C)NC(=O)[C@H](CCC(=O)O)NC(=O)[C@@H]1CCCN1C(=O)[C@H](CCC(=O)O)NC(=O)[C@H](CC(=O)O)NC(=O)[C@H](CO)NC(=O)[C@H](CC(=O)O)NC(=O)[C@H](Cc1ccc(O)cc1)NC(=O)[C@H](CCC(N)=O)NC(=O)[C@H](CCCCN)NC(=O)[C@@H](N)CC(C)C)C(=O)N[C@@H](CO)C(=O)O [Flu.PA.393] | 88 nM | 7260 nM | – | – | 5800 nM | 17700 nM
CC[C@H](C)[C@H](NC(=O)[C@@H](NC(=O)[C@H](CC(C)C)NC(=O)[C@H](CO)NC(=O)[C@H](CCC(N)=O)NC(=O)[C@H](CC(=O)O)NC(=O)[C@@H](NC(=O)[C@H](CC(=O)O)NC(=O)[C@H](CC(=O)O)NC(=O)[C@H](CC(N)=O)NC(=O)[C@H](CCCNC(=N)N)NC(=O)[C@@H](NC(=O)[C@H](CCC(=O)O)NC(=O)CNC(=O)CN)C(C)C)C(C)C)[C@@H](C)CC)C(=O)O [Flu.PB2.250] | – | – | 2500 nM | – | 458 nM | –
